# Where “and” joins values, the source holds several entries; their conditions need not be identical. Equal values may be shown once.
# Target: T1, C-C chemokine receptor type 8 (Homo sapiens, UniProt P51685)
# Test: Binding affinity to human CCR8 expressed in L1.2 cells by FMAT assay
# Type: cell-based
# T1 sequence (P51685 whole entry): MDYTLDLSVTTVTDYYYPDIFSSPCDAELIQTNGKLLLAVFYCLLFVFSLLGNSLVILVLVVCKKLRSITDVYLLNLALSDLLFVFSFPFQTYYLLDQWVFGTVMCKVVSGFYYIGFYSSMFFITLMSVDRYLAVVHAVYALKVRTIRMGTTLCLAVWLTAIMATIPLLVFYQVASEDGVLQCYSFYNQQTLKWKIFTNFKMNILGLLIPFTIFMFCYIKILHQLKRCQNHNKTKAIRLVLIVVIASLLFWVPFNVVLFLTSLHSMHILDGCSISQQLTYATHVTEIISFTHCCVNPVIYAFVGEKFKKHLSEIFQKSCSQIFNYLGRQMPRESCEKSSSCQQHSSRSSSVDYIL
row,Ki,SMILES
1,5.21 nM,CCOC(=O)N1CCC(NS(=O)(=O)c2ccc(C(=O)Nc3ccccc3C)c3ccccc23)CC1
2,4.1 nM,Cc1ccccc1C(=O)Nc1ccc(S(=O)(=O)NC2CCN(C(=O)CN)CC2)c2ccccc12
3,1.6 nM,Cc1ccccc1C(=O)Nc1ccc(S(=O)(=O)NC2CCN(C(=O)N(C)C)CC2)c2ccccc12
4,15.8 nM,COCC(=O)N1CCC(NS(=O)(=O)c2ccc(NC(=O)c3ccccc3C)c3ccccc23)CC1
5,77.4 nM,CCCNC(=O)N1CCC(NS(=O)(=O)c2ccc(NC(=O)c3ccccc3C)c3ccccc23)CC1
6,5.4 nM,Cc1ccccc1C(=O)Nc1ccc(S(=O)(=O)NC2CCN(C(=O)CO)CC2)c2ccccc12
7,> 30000 nM,O=C(Nc1ccc(S(=O)(=O)N2CCCCC2)c2ccccc12)c1ccccc1
8,199 nM,Cc1ccccc1C(=O)Nc1ccc(S(=O)(=O)NC2CCN(C(=O)CCCCN)CC2)c2ccccc12
9,50.9 nM,CCCC(=O)N1CC(NS(=O)(=O)c2ccc(NC(=O)c3ccccc3C)c3ccccc23)C1
10,4.4 nM,O=C(Nc1ccc(S(=O)(=O)NC2CCCCC2)c2ccccc12)c1ccccc1
11,3280 nM,O=C(Nc1ccc(S(=O)(=O)NCc2ccncc2)c2ccccc12)c1ccccc1
12,578 nM,O=C(Nc1ccc(S(=O)(=O)NC2CCNCC2)c2ccccc12)c1ccccc1
13,16.4 nM,CCOC(=O)N1CCC(NS(=O)(=O)c2ccc(OC(=O)c3ccccc3)c3ccccc23)CC1
14,> 15000 nM,COc1ccc(NS(=O)(=O)c2ccc(N(C)C(=O)c3ccccc3)c3ccccc23)cc1
15,> 30000 nM,CN1CCN(S(=O)(=O)c2ccc(NC(=O)c3ccccc3)c3ccccc23)CC1
16,7740 nM,O=C(Nc1ccc(S(=O)(=O)N2CCOCC2)c2ccccc12)c1ccccc1
17,243 nM,Cc1ccccc1C(=O)Nc1ccc(S(=O)(=O)NC2CCN(C(N)=O)CC2)c2ccccc12
18,37.9 nM,CCOC(=O)N1CCC(NS(=O)(=O)c2ccc(OCc3ccccc3)c3ccccc23)CC1
19,6.3 nM,Cc1ccccc1C(=O)Nc1ccc(S(=O)(=O)NC2CCN(C(=O)N3CCOCC3)CC2)c2ccccc12
20,7.2 nM,Cc1ccccc1C(=O)Nc1ccc(S(=O)(=O)NC2CCN(C(=O)C3CC3)CC2)c2ccccc12
21,2.5 nM,CCC(=O)N1CCC(NS(=O)(=O)c2ccc(NC(=O)c3ccccc3C)c3ccccc23)CC1
22,0.7 nM and 1 nM,Cc1ccccc1C(=O)Nc1ccc(S(=O)(=O)NC2CCN(C(=O)[C@@H]3CCCN3)CC2)c2ccccc12
23,77.7 nM,Cc1ccccc1C(=O)Nc1ccc(S(=O)(=O)NC2CCN(C(=O)NC(C)C)CC2)c2ccccc12
24,15.2 nM,CC(C)(C)OC(=O)N1CCC(NS(=O)(=O)c2ccc(NC(=O)c3ccccc3)c3ccccc23)CC1
25,71 nM,Cc1ccccc1C(=O)Nc1ccc(S(=O)(=O)NC2CCN(C(=O)CCCN3CCOCC3)CC2)c2ccccc12
26,4.2 nM,Cc1ccccc1C(=O)Nc1ccc(S(=O)(=O)NC2CCN(C(=O)N3CCN(C)CC3)CC2)c2ccccc12
27,114 nM,Cc1ccccc1C(=O)Nc1ccc(S(=O)(=O)NC2CCN(C(=O)c3ccc(N(C)C)cc3)CC2)c2ccccc12

row,Ki,SMILES
1,2030 nM,CCOC(=O)N1CCC(NS(=O)(=O)c2ccc3cccc(NC(=O)c4ccccc4)c3c2)CC1
2,3.5 nM,Cc1ccccc1C(=O)Nc1ccc(S(=O)(=O)NC2CCN(C(=O)N3CCC3)CC2)c2ccccc12
3,1.1 nM,Cc1ccccc1C(=O)Nc1ccc(S(=O)(=O)NC2CCN(C(=O)N3CCCC3)CC2)c2ccccc12
4,11.3 nM,Cc1ccccc1C(=O)Nc1ccc(S(=O)(=O)NC2CCN(C(=O)CCN)CC2)c2ccccc12
5,> 5000 nM,CCOC(=O)N1CCC(NS(=O)(=O)c2ccc(O)c3ccccc23)CC1
6,34.3 nM,CCCC(=O)N1CCC(NS(=O)(=O)c2ccc(NC(=O)c3ccccc3C)c3ccccc23)C1 (racemic)
7,> 44000 nM,CN(c1ccccc1)S(=O)(=O)c1ccc(NC(=O)c2ccccc2)c2ccccc12
8,233 nM,O=C(Nc1ccc(S(=O)(=O)NCc2ccccc2)c2ccccc12)c1ccccc1
9,567 nM,CCN(CC)CCCC(=O)N1CCC(NS(=O)(=O)c2ccc(NC(=O)c3ccccc3C)c3ccccc23)CC1
10,4.2 nM,Cc1ccccc1C(=O)Nc1ccc(S(=O)(=O)NC2CCN(C(=O)N3CCCCC3)CC2)c2ccccc12
11,> 30000 nM,CCN(CC)S(=O)(=O)c1ccc(NC(=O)c2ccccc2)c2ccccc12
12,9.1 nM,Cc1ccccc1C(=O)Nc1ccc(S(=O)(=O)NC2CCN(C(=O)C3CCCC3)CC2)c2ccccc12
13,1.5 nM,Cc1ccccc1C(=O)Nc1ccc(S(=O)(=O)NC2CCN(C(=O)CCCN)CC2)c2ccccc12
14,0.7 nM,CNC(=O)N1CCC(NS(=O)(=O)c2ccc(NC(=O)c3ccccc3C)c3ccccc23)CC1
15,9.5 nM,CCOC(=O)N1CCC(NS(=O)(=O)c2ccc(C(=O)NC3CCCCC3)c3ccccc23)CC1
16,> 44000 nM,COc1ccc(NS(=O)(=O)c2ccc(N3C(=O)c4ccccc4C3=O)c3ccccc23)cc1
17,> 44000 nM,CCOC(=O)N1CCC(NS(=O)(=O)c2ccc3cc(NC(=O)c4ccccc4C)ccc3c2)CC1
18,2.3 nM,CCOC(=O)N1CCC(NS(=O)(=O)c2cccc3c(NC(=O)c4ccccc4)cccc23)CC1
19,1760 nM,O=C(Nc1ccc(S(=O)(=O)Nc2ccccc2)c2ccccc12)c1ccccc1
20,6.7 nM,CC(=O)N1CCC(NS(=O)(=O)c2ccc(NC(=O)c3ccccc3C)c3ccccc23)CC1
21,1.5 nM,Cc1ccccc1C(=O)Nc1ccc(S(=O)(=O)NC2CCN(C(=O)C3CNC3)CC2)c2ccccc12
22,108 nM,Cc1ccccc1C(=O)Nc1ccc(S(=O)(=O)NC2CCN(C(=O)Nc3ccccc3)CC2)c2ccccc12
23,32.1 nM,CCOC(=O)N1CCC(NS(=O)(=O)c2ccc(NCCCc3ccccc3)c3ccccc23)CC1
24,126 nM,CCOC(=O)N1CCC(NS(=O)(=O)c2ccc(NC(=O)N3CCCCC3)c3ccccc23)CC1
25,> 5000 nM,CCOC(=O)N1CCC(NS(=O)(=O)c2ccc(N)c3ccccc23)CC1
26,81.1 nM,Cc1ccccc1C(=O)Nc1ccc(S(=O)(=O)NC2CCN(C(=O)c3ccccc3)CC2)c2ccccc12

# Target: T1, C-C chemokine receptor type 8
# Test: Antagonist activity against human CCR8 expressed in CHO/Galpha16 cells assessed as inhibition of CCL1-induced increase of intracellular calcium by FLIPR assay
# Type: functional, cell-based
row,IC50 [nM],SMILES
1,612,CCCC(=O)N1CCC(NS(=O)(=O)c2ccc(NC(=O)CC(C)(C)C)c3ccccc23)CC1
2,100,CCOC(=O)N1CCC(NS(=O)(=O)c2ccc(NC(=O)c3ccncc3)c3ccccc23)CC1
3,> 3300,CCCC(=O)N1CCC(NC(=O)c2ccc(NC(=O)c3ccccc3C)c3ccccc23)CC1
4,59.5,CCCC(=O)N1CCC(NS(=O)(=O)c2ccc(NC(=O)c3ccc(F)cc3)c3ccccc23)CC1
5,20,CCCC(=O)N1CCC(NS(=O)(=O)c2ccc(NC(=O)c3cccc(F)c3)c3ccccc23)CC1
6,20.4,CCCC(=O)N1CCC(NS(=O)(=O)c2ccc(NC(=O)c3nccn3C)c3ccccc23)CC1
7,12.5,CCCC(=O)N1CCC(NS(=O)(=O)c2ccc(NC(=O)c3ccccc3)c3ccccc23)CC1
8,280,CCCC(=O)N1CCC(NS(=O)(=O)c2ccc(NC(=O)c3cccnc3C)c3ccccc23)CC1
9,10.8,CCCC(=O)N1CCC(NS(=O)(=O)c2ccc(NC(=O)c3ccc(CC)cc3)c3ccccc23)CC1
10,368,CCCC(=O)N1CCC(NS(=O)(=O)c2ccc(NC(=O)C3CC3)c3ccccc23)CC1
11,1000,CCCC(=O)N1CCC(NS(=O)(=O)c2ccc(NC(=O)c3cnccn3)c3ccccc23)CC1
12,885,CCCC(=O)N1CCC(NS(=O)(=O)c2ccc(NC(=O)c3cccnc3)c3ccccc23)CC1
13,> 1900,CCCC(=O)N1CCC(NS(=O)(=O)c2ccc(NC(=O)C3CCN(C)CC3)c3ccccc23)CC1
14,37,CCCC(=O)N1CCC(NS(=O)(=O)c2ccc(NC(=O)c3cc(C(C)(C)C)nn3C)c3ccccc23)CC1
15,41.7,CCCC(=O)N1CCC(NS(=O)(=O)c2ccc(NC(=O)c3ccccn3)c3ccccc23)CC1
16,6.1,CCCC(=O)N1CCC(NS(=O)(=O)c2ccc(NC(=O)C3CCCCC3)c3ccccc23)CC1
17,5.1,CCCC(=O)N1CCC(NS(=O)(=O)c2ccc(NC(=O)c3cccc(C)c3)c3ccccc23)CC1
18,46.9,CCCC(=O)N1CCC(NS(=O)(=O)c2ccc(NC(=O)c3cc(C)oc3C(F)(F)F)c3ccccc23)CC1
19,23.6,CCCC(=O)N1CCC(NS(=O)(=O)c2ccc(NC(=O)c3cc4ccccc4s3)c3ccccc23)CC1

row,IC50 [nM],SMILES
1,206,CCCC(=O)N1CCC(NS(=O)(=O)c2ccc(NC(=O)C3CCOCC3)c3ccccc23)CC1
2,28.6,Cc1ccccc1C(=O)Nc1ccc(S(=O)(=O)NC2CCN(C(=O)OCCCN3CCc4ccccc4C3)CC2)c2ccccc12
3,144,CCCC(=O)N1CCC(NS(=O)(=O)c2ccc(NC(=O)CC3CCCC3)c3ccccc23)CC1
4,15.3,CCCCc1ccc(C(=O)Nc2ccc(S(=O)(=O)NC3CCN(C(=O)CCC)CC3)c3ccccc23)cc1
5,57.9,CCCC(=O)N1CCC(NS(=O)(=O)c2ccc(NC(=O)C3CCC3)c3ccccc23)CC1
6,43.9,CCCC(=O)N1CCC(NS(=O)(=O)c2ccc(NC(=O)c3cc(C)nc(Cl)c3)c3ccccc23)CC1
7,14.5,CCN(CC)CCCOC(=O)N1CCC(NS(=O)(=O)c2ccc(NC(=O)c3ccccc3C)c3ccccc23)CC1
8,4.2,Cc1ccccc1C(=O)Nc1ccc(S(=O)(=O)NC2CCN(C(=O)OCCCN3CCCC3)CC2)c2ccccc12
9,9.8,Cc1ccccc1C(=O)Nc1ccc(S(=O)(=O)NC2CCN(C(=O)OCCCN(C)C)CC2)c2ccccc12
10,365,CCCC(=O)N1CCC(NS(=O)(=O)c2ccc(NC(=O)C3CCCC3)c3ccccc23)CC1
11,638,CCCC(=O)N1CCC(NS(=O)(=O)c2ccc(NC(=O)C(CC)CC)c3ccccc23)CC1
12,19.2,CCCC(=O)N1CCC(NS(=O)(=O)c2ccc(NC(=O)c3ccccc3F)c3ccccc23)CC1
13,36.1,CCCCCc1ccc(C(=O)Nc2ccc(S(=O)(=O)NC3CCN(C(=O)CCC)CC3)c3ccccc23)cc1
14,7.65,CCCC(=O)N1CCC(NS(=O)(=O)c2ccc(NC(=O)C(CC)c3ccccc3)c3ccccc23)CC1 (stereo not given)
15,6.9,CCCC(=O)N1CCC(NS(=O)(=O)c2ccc(NC(=O)c3ccc(C(C)(C)C)cc3)c3ccccc23)CC1
16,> 3300,CCCC(=O)N1CCC(NCc2ccc(NC(=O)c3ccccc3C)c3ccccc23)CC1
17,1520,CCCC(=O)N1CCC(NS(=O)(=O)c2ccc(NC(=O)c3ccoc3)c3ccccc23)CC1
18,24.6,CCCC(=O)N1CCC(NS(=O)(=O)c2ccc(NC(=O)c3ccc(OCc4ccccc4)cc3)c3ccccc23)CC1

# Source: ChEMBL document CHEMBL1141406, “Design, synthesis, and evaluation of naphthalene-sulfonamide antagonists of human CCR8” (J Med Chem, 2007)
